Laboratory results from patent US11180479B2 (HAPLOGEN GmbH, priority 2017, dated 2021).

What was measured:
PLA2G16 = target: T1, PLA2G16 (Homo sapiens, UniProt P53816); assay: Enzyme activity assay for PLA2G16 (Red/Green BODIPY PC-A2 fluorescence); assay type: biochemical; settings: His-tagged PLA2G16, 4 min pre-incubation, compound 2 nM to 50 μM; first symbol in parentheses
T1 construct: Hexa-His (N); made in house; host or cells: E. coli BL21(DE3)
T1 sequence (P53816 1-162): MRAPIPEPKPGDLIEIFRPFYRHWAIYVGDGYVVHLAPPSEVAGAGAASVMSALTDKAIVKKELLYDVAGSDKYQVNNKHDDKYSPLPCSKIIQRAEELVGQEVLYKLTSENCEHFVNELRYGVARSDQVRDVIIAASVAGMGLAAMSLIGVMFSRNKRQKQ
Description: Purification and Enzyme Activity Assay for PLA2G16
A cDNA for PLA2G16 (NM_007069) was custom-synthesized by Genscript (Piscataway, USA) and inserted into a pET-based bacterial expression vector [Moffatt, B. A. and Studier, F. W. (1986) J. Mol. Biol. 189, 113-130; Rosenberg, A. H., Lade, B. N., Chui, D., Lin, S., Dunn, J. J., and Studier, F. W. (1987) Gene 56, 125-135], enabling the expression of N-terminally Hexa-His-tagged PLA2G16. E. coli BL21(DE3) (Agilent) were transformed with pET-His-PLA2G16 according to the manufacturer's instructions and plated on Carbenicillin-containing agar plates (final concentration: 100 μg/mL). A single clone was inoculated in 100 mL LB medium supplemented with 100 μg/mL Carbenicillin and the inoculated culture was grown at 37° C. overnight in a rotary shaker. On the next day, the bacterial culture was diluted in LB medium supplemented with 100 μg/mL Carbenicillin (30 mL overnight culture in 800 mL total culture volume). Bacteria were grown at 37° C. until the OD600 reached 0.6. Gene expression was induced by addition of 1 mM isopropyl-β-D-thiogalactopyranosid (IPTG) for 2 h at 18° C. Subsequently, bacteria were harvested by centrifugation (15 min; 10,000×g; 4° C.) and frozen at −80° C. The bacterial pellet was resuspended in Buffer A (50 mM Tris/HCl pH 7.5, 500 mM NaCl, 5% glycerol, 5 mM β-Mercaptoethanol and 1 mM PMSF) and lysed by addition of 1 mg/mL lysozyme (Sigma Aldrich) and 100 μg/mL DNasel-(Roche). The sample was incubated at 30° C. for 30 min to allow lysis to occur. Then, the lysate was cleared by centrifugation (15,000×g, 15 min, 4° C.) and incubated with 1.5 mL Ni-NTA agarose suspension (Qiagen) for 60 min at 4° C. The Ni-NTA agarose was washed with 10 mL Buffer A. Bound protein was eluted by applying a manual gradient of Buffer A supplemented with increasing concentrations of imidazole (Sigma Aldrich; 25/50/75/100/250 mM). Purified fractions were analyzed by SDS-PAGE followed by Coomassie staining to assess the purity.
Activity of the protein was assessed as follows:
Red/Green BODIPY® PC-A2 (Invitrogen, 1 mM in DMSO) was mixed with equal volumes of 1,2-Dioleoyl-sn-glycero-3-phosphocholine (DOPC; Sigma Aldrich, 10 mM in Ethanol) and 1,2-Dioleoyl-sn-glycero-3-phospho-rac-(1-glycerol) (DOPG; Sigma Aldrich, 10 mM in Ethanol) and 0.5 volumes of Cholesterol (CHOL; Sigma Aldrich, 10 mM in Ethanol) and vortexed for 5 s. The mixture (Red/Green BODIPY® PC-A2/DOPC/DOPG/CHOL) was diluted 1:91.4 in activity assay buffer (50 mM Tris/HCl pH 8.5, 100 mM NaCl) using a small-orifice pipette tip under constant vortexing. In the following, this preparation will be referred to as the “substrate solution”.
In order to evaluate their inhibitory potential, compounds were dissolved at 10 mM concentration in DMSO and directly spotted into assay plates (Corning, Cat. No. 3576) using acoustic liquid transfer (Labcyte Echo 525). Each compound was spotted at increasing concentrations, ranging from 2 nM to 50 μM (concentration in the final assay volume). 50 μl of PLA2G16 enzyme solution (diluted in activity buffer, supplemented with 5 mM L-Glutathione; Sigma Aldrich) was pre-incubated with compounds for 4 min., followed by addition of 50 μl of substrate solution. Fluorescence was recorded immediately after substrate addition for a total time of 10 min. using a SpectraMax M5 multimode reader (Excitation wavelength: 480 nm, emission wavelength: 530 nm). The relative increase of fluorescence over time is referred to as the enzyme activity. Half-maximal inhibitory concentrations (IC50) were derived by non-linear regression analysis using the drc package in R (R Development. Core Team, 2005).

[1] = system: picornaviruses (CVB1, HRV-A2, HRV-A23, EV-68); assay: Anti-picornavirus cytopathic effect (CPE) reduction assay on HeLa H1 cells; assay type: cell-based; settings: 48 h, category from averaging EC50 values of four picornaviruses (CVB1, HRV-A2, HRV-A23, EV68), second symbol in parentheses
Protocol: Anti-Picornavirus Assay in Mammalian Cell Culture
The antiviral activity of selected compounds was tested using a cytopathic effect (CPE) reduction assay on HeLa H1 cells (ATCC CRL-1958). Briefly, cells were seeded in 96-well dishes (2×10^4 cells/well) in DMEM medium (Life technologies) supplemented with 10% FBS and PenStrep solution (100 U/mL Penicillin and 100 μg/mL streptomycin) and incubated at 37° C., 5% CO2 overnight. The next day, cells were pre-treated with serial dilutions of the compound in DMEM medium supplemented with 2% FBS and PenStrep for 2 h at 37° C., 5% CO2. Next, cells were infected with virus (CVB1, HRV-A2, HRV-A23, EV-68) at an multiplicity of infection (MOI) which results in a complete virus-induced CPE within 2 days in control wells (infected and vehicle-treated). After 48 h, supernatants were aspirated and 50 μl/well of CellTiterBlue reagent (Promega) diluted 1:5 in DMEM+2% FBS, was added to the cells. Plates were returned to the incubator and allowed to develop for 1.5 h. After that, plates were equilibrated to RT and subsequently, fluorescence was recorded (Excitation wavelength: 560 nm; emission wavelength: 590 nm) using a SpectraMax M5 multimode plate reader. Viability of cells was calculated according to the formula: V=(RFUCpd−RFUVeh/(RFUM−RFUVeh), where RFUCpd refers to infected and compound-treated cells, RFUVeh to infected and vehicle-treated cells and RFUM to uninfected and vehicle treated cells. Half-maximal effective concentrations (EC50) were calculated by non-linear regression analysis using the drc package in R (R Development. Core Team, 2005). EC50 categories as presented in Table 2 were calculated by averaging the EC50 values from four picornaviruses (CVB1, HRV-A2, HRV-A23, EV68).

| SMILES | IC50 (PLA2G16) | EC50 [1] |
| --- | --- | --- |
| CC(F)(F)CNC(=O)C(=O)[C@@H]1CNC(=O)[C@H]1c1ccccc1 (single isomer, unassigned) [FP-87] | 1000 to 10000 nM | > 10000 nM |
| N#CCCNC(=O)C(=O)[C@H]1CNC(=O)[C@@H]1Cc1ccccc1 (racemic) [FP-6, Rac-2-[(3R,4R)-4-benzyl-5-oxopyrrolidin-3-yl]-N-(2-cyanoethyl)-2-oxoacetamide] | < 1000 nM | 1000 to 10000 nM |
| CC(C)CNC(=O)C(=O)[C@H]1CN(CCN2CCCC2=O)C(=O)[C@@H]1Cc1ccccc1 (racemic) [FP-47, Rac-2-[(3R,4R)-4-benzyl-5-oxo-1-[2-(2-oxopyrrolidin-1-yl)ethyl]pyrrolidin-3-yl]-N-(2-methylpropyl)-2-oxoacetamide] | < 1000 nM | 1000 to 10000 nM |
| Cn1cc(N2C[C@H](C(=O)C(=O)NC3CC3)[C@@H](Cc3ccccc3)C2=O)cn1 (racemic) [FP-75, Rac-2-[(3R,4R)-4-benzyl-1-(1-methyl-1H-pyrazol-4-yl)-5-oxopyrrolidin-3-yl]-N-cyclopropyl-2-oxoacetamide] | < 1000 nM | < 1000 nM |
| CC(C)CNC(=O)C(=O)[C@@H]1CN(CC(=O)N(C)C)C(=O)[C@H]1Cc1ccccc1 (single isomer, unassigned) [FP-91] | 1000 to 10000 nM | > 10000 nM |
| N#Cc1ncncc1N1C[C@H](C(=O)C(=O)NC2CC2)[C@@H](Cc2ccccc2)C1=O (racemic) [FP-65, Rac-2-[(3R,4R)-4-benzyl-1-(4-cyanopyrimidin-5-yl)-5-oxopyrrolidin-3-yl]-N-cyclopropyl-2-oxoacetamide] | < 1000 nM | 1000 to 10000 nM |
| O=C(NCCC1CC1)C(=O)[C@H]1CNC(=O)[C@@H]1c1ccccc1 (racemic) [FP-24, Rac-N-(2-cyclopropylethyl)-2-oxo-2-[(3R,4S)-5-oxo-4-phenylpyrrolidin-3-yl]acetamide] | < 1000 nM | < 1000 nM |
| CCCNC(=O)C(=O)[C@H]1CNC(=O)[C@@H]1c1ccccc1 (racemic) [FP-18, Rac-2-oxo-2-[(3R,4S)-5-oxo-4-phenylpyrrolidin-3-yl]-N-propylacetamide] | < 1000 nM | 1000 to 10000 nM |
| O=C(NCC1CC(F)(F)C1)C(=O)[C@H]1CNC(=O)[C@@H]1c1ccccc1 (racemic) [FP-23, Rac-N-[(3,3-difluorocyclobutyl)methyl]-2-oxo-2-[(3R,4S)-5-oxo-4-phenylpyrrolidin-3-yl]acetamide] | < 1000 nM | < 1000 nM |
| Cc1ncncc1N1C[C@H](C(=O)C(=O)NC2CC2)[C@@H](Cc2ccccc2)C1=O (racemic) [FP-67, Rac-2-[(3R,4R)-4-benzyl-1-(4-methylpyrimidin-5-yl)-5-oxopyrrolidin-3-yl]-N-cyclopropyl-2-oxoacetamide] | < 1000 nM | 1000 to 10000 nM |
| Cn1ncnc1CN1C[C@@H](C(=O)C(=O)NC2CC2)[C@H](Cc2ccccc2)C1=O (single isomer, unassigned) [FP-97] | 1000 to 10000 nM | > 10000 nM |
| O=C(NC1CC1)C(=O)[C@H]1CN(c2ccc(Cl)nn2)C(=O)[C@@H]1Cc1ccccc1 (racemic) [FP-62, Rac-2-[(3R,4R)-4-benzyl-1-(6-chloropyridazin-3-yl)-5-oxopyrrolidin-3-yl]-N-cyclopropyl-2-oxoacetamide] | < 1000 nM | < 1000 nM |

The next lines start with the values.

| IC50 (PLA2G16) | EC50 [1] | SMILES |
| --- | --- | --- |
| < 1000 nM | < 1000 nM | Cc1cc(CN2C[C@H](C(=O)C(=O)NC3CC3)[C@@H](Cc3ccccc3)C2=O)no1 (racemic) [FP-41, Rac-2-[(3R,4R)-4-benzyl-1-[(5-methyl-1,2-oxazol-3-yl)methyl]-5-oxopyrrolidin-3-yl]-N-cyclopropyl-2-oxoacetamide] |
| < 1000 nM | < 1000 nM | O=C(NC1CC1)C(=O)[C@H]1CN(c2cccc(=O)[nH]2)C(=O)[C@@H]1Cc1ccccc1 (racemic) [FP-70, Rac-2-[(3R,4R)-4-benzyl-5-oxo-1-(6-oxo-1,6-dihydropyridin-2-yl)pyrrolidin-3-yl]-N-cyclopropyl-2-oxoacetamide] |
| < 1000 nM | 1000 to 10000 nM | O=C(NC1CCOCC1)C(=O)[C@H]1CNC(=O)[C@@H]1Cc1ccccc1 (racemic) [FP-7, Rac-2-[(3R,4R)-4-benzyl-5-oxopyrrolidin-3-yl]-N-(oxan-4-yl)-2-oxoacetamide] |
| < 1000 nM | < 1000 nM | CCNC(=O)C(=O)[C@H]1CNC(=O)[C@@H]1Cc1ccc(F)cc1 (racemic) [FP-30, Rac-N-ethyl-2-[(3R,4R)-4-[(4-fluorophenyl)methyl]-5-oxopyrrolidin-3-yl]-2-oxoacetamide] |
| < 1000 nM | 1000 to 10000 nM | O=C(NC1CC(F)(F)C1)C(=O)[C@H]1CNC(=O)[C@@H]1c1ccccc1 (racemic) [FP-16, Rac-N-(3,3-difluorocyclobutyl)-2-oxo-2-[(3R,4S)-5-oxo-4-phenylpyrrolidin-3-yl]acetamide] |
| < 1000 nM | < 1000 nM | CCCCNC(=O)C(=O)[C@H]1CNC(=O)[C@@H]1c1ccccc1 (racemic) [FP-103, Rac-N-butyl-2-oxo-2-[(3R,4S)-5-oxo-4-phenylpyrrolidin-3-yl]acetamide] |
| < 1000 nM | < 1000 nM | O=C(NCC1CC1)C(=O)[C@H]1CNC(=O)[C@@H]1Cc1ccc(F)cc1 (racemic) [FP-31, Rac-N-(cyclopropylmethyl)-2-[(3R,4R)-4-[(4-fluorophenyl)methyl]-5-oxopyrrolidin-3-yl]-2-oxoacetamide] |
| < 1000 nM | 1000 to 10000 nM | CCNC(=O)C(=O)[C@H]1CNC(=O)[C@@H]1c1ccccc1 (racemic) [FP-15, Rac-N-ethyl-2-oxo-2-[(3R,4S)-5-oxo-4-phenylpyrrolidin-3-yl]acetamide] |
| < 1000 nM | < 1000 nM | CC(F)(F)CNC(=O)C(=O)[C@H]1CN(c2cncnc2)C(=O)[C@@H]1Cc1ccccc1 (single isomer, unassigned) [FP-95] |
